“And” between values parts separate entries of the source, which are not always exact repeats. Equal entries are not always repeated. Where two headings read alike, the source gives them in different places.
Tests used:
Assay type in all cases: cell-based
human Nav1.5 [1] = target: T1, human Nav1.5 (Homo sapiens, UniProt Q14524); assay: cell-based; conditions: for EC50: read-out: Nav1.5 Ipeak EC50
Procedure: (§1) Functional modulation of recombinant human voltage-gated sodium (Nav) channels exposed to marine PbTx-3 and brevenal was assessed by automated patch-clamp electrophysiology. Neuronal Nav1.2 (CNS) and Nav1.7 (PNS), in addition to muscle Nav1.4 (skeletal) and Nav1.5 (cardiac) sodium channels, were patch-clamped in mammalian cells. Whole-cell currents mediated by human Nav1.4 and Nav1.7 overexpressed in CHO-K1 cells, as well as human Nav1.2 and Nav1.5 overexpressed in HEK293 cells, were recorded at room temperature. Currents were elicited by 25 ms test pulses to −20 mV from a holding potential (Vh) of −120 mV, delivered for 5 min at 0.1 Hz, after each full-bath solution exchange to allow current amplitude and kinetics to reach a steady state.
(§2) Current traces were scaled to maximal Ipeak and are presented as insets in Figure 2 to underline the effects (or lack thereof) of PbTx-3 and brevenal on the current kinetics of the four Nav isoforms studied. Inactivation time constants (τinact) in control and the presence of PbTx-3 and brevenal were estimated by exponential fits (see Methods) to the current decay between 15% and 85% of the depolarizing pulse. Single exponential fits adequately described τinact for the neuronal and the skeletal muscle Nav isoforms, whereas a double exponential fit was required to approximate open channel inactivation of the cardiac Nav current. Consistent with the enhancement of Ilate observed for Nav1.2, Nav1.4, and Nav1.5 in the presence of PbTx-3, significant concentration-dependent increases in the Yinf asymptote were detected (Tables S1–S3). These were mirrored by brevenal exposure in Nav1.2- and Nav1.4-mediated currents. Nevertheless, the estimated τinacts appeared insensitive to PbTx-3 and brevenal modification, with the notable exception of Nav1.4, for which high concentrations of PbTx-3 and brevenal caused a measurable slowing of the open channel inactivation time constant (Table S2).
(§3) Recording solutions: The extracellular solution contained (in mM) 140 NaCl, 5 KCl, 2 CaCl2, 2 MgCl2, 10 glucose, and 10 HEPES (pH 7.4 with NaOH, 298 ± 3 mOsmol/k g). Control intracellular solution (in mM): 60 CsF, 70 CsCl, 10 EGTA, 10 glucose, and 10 HEPES (pH 7.2 with CsOH, 285 ± 3 mOsmol/kg). Intracellular exposure to brevenal (1 μM) was achieved by including it in the control intracellular solution during chip filling.
(§4) HEK293 cells heterologously expressing human Nav1.2 (Scottish Biomedical, a kind gift from the Petrous lab, Florey Institute of Neuroscience and Mental Health, Melbourne, VIC Australia) and Nav1.5 (ChanTest Corp., Cleveland, OH, USA) were cultured in DMEM containing 10% v/v FBS and selection antibiotics to enable stable expression as per the manufacturer’s recommendation. CHOK1 expressing Nav1.4 and Nav1.7 (ChanTest) was cultured in DMEM/F12 containing 10% v/v FBS and selection antibiotics supporting stable expression as recommended by the manufacturer. Cells were maintained in a humidified 5% CO2 incubator at 37 °C, grown in T25 flasks to 70–80% confluence, and passaged every 3–4 days using TrypLE Express (Invitrogen). After harvesting with TrypLE, cells were resuspended to 10^5 cells/mL in cold extracellular solution and allowed to recover for 30 min at 4 °C before recording.
(§5) Electrophysiology: Automated patch-clamp (APC) recordings were performed in a PatchLiner Octo (Nanion Technologies GmbH, Munich, Germany) equipped with two EPC-10 quadro patch-clamp amplifiers (HEKA Electronik, Lambrecht/Pfalz, Germany). PatchControl HT (Nanion) was used for cell capture, seal formation, and establishment of the whole-cell configuration, whilst voltage was controlled and currents were sampled with PatchMaster (HEKA Electronics). Recordings were performed under the whole-cell configuration using single-hole planar medium resistance NPC-16 chips (Rchip, resistance of ~2.5 MΩ) at room temperature (22–24 °C).
(§6) Cells between passages 6 and 12 were used. […]

human Nav1.7 = human Nav1.7 (Homo sapiens, UniProt Q15858); assay: Automated patch-clamp, concentration-response and inactivation fits, Nav1.7 in CHO-K1
Sequence of human Nav1.7 (Q15858 whole entry): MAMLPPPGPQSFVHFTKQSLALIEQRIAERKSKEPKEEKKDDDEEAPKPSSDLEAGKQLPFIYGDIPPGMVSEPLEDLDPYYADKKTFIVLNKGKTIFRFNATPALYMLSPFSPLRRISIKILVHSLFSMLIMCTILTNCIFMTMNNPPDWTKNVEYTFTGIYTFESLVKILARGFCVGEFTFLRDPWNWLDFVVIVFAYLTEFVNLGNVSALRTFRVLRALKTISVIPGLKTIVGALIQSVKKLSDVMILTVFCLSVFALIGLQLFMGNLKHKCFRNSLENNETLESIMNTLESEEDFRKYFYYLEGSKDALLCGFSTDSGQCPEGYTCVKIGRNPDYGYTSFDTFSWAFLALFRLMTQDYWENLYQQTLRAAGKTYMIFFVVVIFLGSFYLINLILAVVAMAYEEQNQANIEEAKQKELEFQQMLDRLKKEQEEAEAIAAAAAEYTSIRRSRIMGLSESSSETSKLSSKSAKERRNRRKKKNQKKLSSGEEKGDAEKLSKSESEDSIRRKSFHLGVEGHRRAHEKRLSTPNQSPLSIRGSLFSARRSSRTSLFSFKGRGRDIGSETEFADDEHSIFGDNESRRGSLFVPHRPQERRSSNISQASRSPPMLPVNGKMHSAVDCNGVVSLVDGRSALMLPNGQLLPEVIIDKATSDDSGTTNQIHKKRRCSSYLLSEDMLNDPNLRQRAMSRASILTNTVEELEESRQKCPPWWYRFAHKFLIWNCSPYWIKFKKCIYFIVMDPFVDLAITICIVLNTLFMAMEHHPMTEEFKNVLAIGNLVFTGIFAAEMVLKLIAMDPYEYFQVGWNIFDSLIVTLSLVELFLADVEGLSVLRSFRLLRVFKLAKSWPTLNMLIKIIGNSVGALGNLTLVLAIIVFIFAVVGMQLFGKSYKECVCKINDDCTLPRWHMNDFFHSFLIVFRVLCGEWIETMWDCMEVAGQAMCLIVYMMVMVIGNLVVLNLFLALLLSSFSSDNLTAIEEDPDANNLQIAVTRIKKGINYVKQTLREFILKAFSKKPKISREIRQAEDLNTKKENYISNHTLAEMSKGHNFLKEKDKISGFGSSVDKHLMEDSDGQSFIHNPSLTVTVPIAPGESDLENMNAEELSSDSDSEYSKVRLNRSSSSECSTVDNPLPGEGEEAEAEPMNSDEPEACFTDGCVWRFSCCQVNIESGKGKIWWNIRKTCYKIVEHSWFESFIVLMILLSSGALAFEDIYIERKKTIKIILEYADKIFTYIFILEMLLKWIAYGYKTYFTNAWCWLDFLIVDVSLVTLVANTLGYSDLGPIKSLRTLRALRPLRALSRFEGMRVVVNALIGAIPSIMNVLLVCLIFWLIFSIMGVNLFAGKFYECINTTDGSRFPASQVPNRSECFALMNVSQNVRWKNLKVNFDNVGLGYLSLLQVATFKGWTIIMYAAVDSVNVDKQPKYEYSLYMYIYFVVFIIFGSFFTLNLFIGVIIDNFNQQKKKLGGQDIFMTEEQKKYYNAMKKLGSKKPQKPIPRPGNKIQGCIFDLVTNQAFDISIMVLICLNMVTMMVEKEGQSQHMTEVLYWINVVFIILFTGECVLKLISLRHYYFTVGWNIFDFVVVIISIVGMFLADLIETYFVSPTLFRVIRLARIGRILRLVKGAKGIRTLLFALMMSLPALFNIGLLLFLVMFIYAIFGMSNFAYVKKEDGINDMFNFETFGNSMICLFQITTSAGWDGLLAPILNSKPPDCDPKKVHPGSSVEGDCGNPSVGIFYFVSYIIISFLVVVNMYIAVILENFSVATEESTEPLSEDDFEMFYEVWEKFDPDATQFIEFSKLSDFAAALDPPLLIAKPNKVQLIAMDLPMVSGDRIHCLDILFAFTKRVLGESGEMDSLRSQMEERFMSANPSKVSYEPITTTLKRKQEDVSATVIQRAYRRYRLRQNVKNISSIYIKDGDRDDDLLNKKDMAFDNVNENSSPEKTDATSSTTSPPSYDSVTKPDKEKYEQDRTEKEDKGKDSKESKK
Procedure: as §1, §2, §3, §4, §5, §6

human Nav1.4 = human Nav1.4 (Homo sapiens, UniProt P35499); assay: Automated patch-clamp I-V relationship (voltage dependence of activation, Gmax), Nav1.4
Procedure: (§7) The voltage dependence of recombinant Nav channel-mediated currents exposed to PbTx-3 and brevenal was evaluated using current–voltage (I-V) relationships built for Ipeak and Ilate elicited by a standard stimulation protocol (25 ms, −100 to +60 mV, Vh −120 mV, 0.1 Hz).
[…] […] To investigate the possibility of overlapping binding of these compounds within Nav channels, Nav whole-cell currents were recorded using an intracellular solution supplemented with brevenal (Brevenali = 1 μM). After equilibration, extracellular PbTx-3o (1 μM) was applied and its modulatory effects over the current kinetics and voltage dependence of activation were compared.
(§8) Figure 4 and Figure 5 display representative current traces mediated by human recombinant Nav channels in control and upon exposure to PbTx-3 and brevenal. I-V plots from the normalized peak and late (when present) currents amplitudes (Ipeak/Ipeak^max and Ilate/Ipeak^max) were fitted to a Boltzmann function rendering the half-maximal activation potential (V0.5) and normalized macroscopic conductance (Gmax) parameters (see Section 4). The changes in V0.5 (ΔV0.5 = V0.5^Comp − V0.5^Ctr) and relative Gmax (Gmax^Rel = Gmax^Comp/Gmax^Ctr) observed in the presence of PbTx-3 and brevenal and control conditions were then calculated and compared for all assayed conditions.
as §3, §5
(§9) Peak I–V curves were fitted using:I(V) = (V − Vrev) × Gmax/(1 + exp ((V0.5 − V)/Vslope) where I is the macroscopic current, V is the command potential, Vrev is the reversal potential (mV), Gmax is the maximal conductance, V0.5 is the half-activation potential (mV), and Vslope is the slope factor (mV/e-fold).

human Nav1.5 [2] = target: T1, human Nav1.5; assay: Automated patch-clamp I-V relationship (voltage dependence of activation, Gmax), Nav1.5
Procedure: as §7
The effects of extracellular exposure to PbTx-3 (PbTx-3o = 1 μM) and brevenal (Brevenalo = 10 μM) on the activation of Nav channels in neuronal and muscle cells were examined under normal intracellular ionic conditions. […] To investigate the possibility of overlapping binding of these compounds within Nav channels, Nav whole-cell currents were recorded using an intracellular solution supplemented with brevenal (Brevenali = 1 μM). After equilibration, extracellular PbTx-3o (1 μM) was applied and its modulatory effects over the current kinetics and voltage dependence of activation were compared.
as §8, §3, §5, §9

T1 sequence (Q14524 whole entry): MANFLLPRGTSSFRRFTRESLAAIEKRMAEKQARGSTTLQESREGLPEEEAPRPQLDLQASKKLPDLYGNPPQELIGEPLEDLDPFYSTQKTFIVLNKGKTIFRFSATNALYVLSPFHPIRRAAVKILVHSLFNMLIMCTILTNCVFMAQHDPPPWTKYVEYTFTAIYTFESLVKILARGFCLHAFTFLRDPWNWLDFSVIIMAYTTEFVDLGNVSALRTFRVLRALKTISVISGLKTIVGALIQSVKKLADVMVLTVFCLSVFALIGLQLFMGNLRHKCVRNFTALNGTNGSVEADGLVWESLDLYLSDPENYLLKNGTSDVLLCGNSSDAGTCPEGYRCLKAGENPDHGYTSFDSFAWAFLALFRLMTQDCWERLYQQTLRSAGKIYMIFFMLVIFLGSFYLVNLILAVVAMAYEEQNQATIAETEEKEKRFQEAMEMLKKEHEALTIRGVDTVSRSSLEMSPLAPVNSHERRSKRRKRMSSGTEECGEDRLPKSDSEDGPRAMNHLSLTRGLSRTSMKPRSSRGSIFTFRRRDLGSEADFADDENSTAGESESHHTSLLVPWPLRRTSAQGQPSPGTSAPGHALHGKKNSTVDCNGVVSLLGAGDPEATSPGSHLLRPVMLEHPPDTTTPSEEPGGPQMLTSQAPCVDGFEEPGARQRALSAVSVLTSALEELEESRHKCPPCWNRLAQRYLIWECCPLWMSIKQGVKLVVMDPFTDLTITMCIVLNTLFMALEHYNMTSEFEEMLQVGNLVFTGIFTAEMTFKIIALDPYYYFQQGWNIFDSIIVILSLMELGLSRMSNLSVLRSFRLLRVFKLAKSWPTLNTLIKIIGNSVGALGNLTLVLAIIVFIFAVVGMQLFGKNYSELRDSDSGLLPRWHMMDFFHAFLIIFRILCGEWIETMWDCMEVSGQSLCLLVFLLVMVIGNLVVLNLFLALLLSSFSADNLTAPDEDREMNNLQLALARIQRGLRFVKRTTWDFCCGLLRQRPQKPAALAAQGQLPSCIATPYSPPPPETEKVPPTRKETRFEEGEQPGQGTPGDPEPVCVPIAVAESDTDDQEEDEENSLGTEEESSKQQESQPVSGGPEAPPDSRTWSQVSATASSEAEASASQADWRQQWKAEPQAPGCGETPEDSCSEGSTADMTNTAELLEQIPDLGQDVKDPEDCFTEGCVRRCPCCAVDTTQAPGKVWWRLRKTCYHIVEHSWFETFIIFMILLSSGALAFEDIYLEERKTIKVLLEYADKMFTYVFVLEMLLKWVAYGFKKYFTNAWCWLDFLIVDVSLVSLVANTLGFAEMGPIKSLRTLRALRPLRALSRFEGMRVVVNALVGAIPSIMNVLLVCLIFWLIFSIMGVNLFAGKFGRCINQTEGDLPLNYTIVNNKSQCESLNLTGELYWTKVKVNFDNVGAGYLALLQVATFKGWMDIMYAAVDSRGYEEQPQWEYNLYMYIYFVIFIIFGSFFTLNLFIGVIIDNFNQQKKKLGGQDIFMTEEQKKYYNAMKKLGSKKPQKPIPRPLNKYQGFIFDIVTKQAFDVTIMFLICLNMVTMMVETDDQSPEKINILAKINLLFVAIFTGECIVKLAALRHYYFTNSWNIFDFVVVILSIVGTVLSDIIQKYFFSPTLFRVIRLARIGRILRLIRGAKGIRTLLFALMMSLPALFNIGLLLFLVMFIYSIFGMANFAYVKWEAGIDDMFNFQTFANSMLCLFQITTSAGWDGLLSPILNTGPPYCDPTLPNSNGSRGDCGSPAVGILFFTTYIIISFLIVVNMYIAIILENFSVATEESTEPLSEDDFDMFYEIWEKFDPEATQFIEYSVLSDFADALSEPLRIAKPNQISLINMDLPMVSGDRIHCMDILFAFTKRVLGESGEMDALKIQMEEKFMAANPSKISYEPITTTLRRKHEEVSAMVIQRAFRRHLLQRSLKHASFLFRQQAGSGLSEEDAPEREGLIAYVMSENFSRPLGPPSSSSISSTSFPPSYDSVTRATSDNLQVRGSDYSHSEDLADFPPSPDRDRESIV

C=C/C=C\CC[C@H]1O[C@H]2CC[C@@]3(C)O[C@H]4[C@@H](O)C[C@@]5(C)O[C@@H](CC/C=C(C)/C(C)=C/C=O)[C@@H](C)C[C@H]5O[C@@H]4C[C@@H]3O[C@@H]2CC[C@@]1(C)O [Brevenal]
Nav1.5 A1Rel (human Nav1.5 [1]; 10^-5 M, n = 4): 0.77±0.05 | Nav1.5 τ 1inact (human Nav1.5 [1]; 10^-5 M, n = 4): 0.44 ± 0.01 ms | Nav1.5 τ 2inact (human Nav1.5 [1]; 10^-5 M, n = 4): 1.79 ± 0.06 ms | Nav1.5 A1Rel (human Nav1.5 [1]; 10^-6 M, n = 4): 0.77±0.07 | Nav1.5 τ 1inact (human Nav1.5 [1]; 10^-6 M, n = 4): 0.46 ± 0.01 ms | Nav1.5 τ 2inact (human Nav1.5 [1]; 10^-6 M, n = 4): 2.05 ± 0.21 ms | Nav1.5 A1Rel (human Nav1.5 [1]; 10^-9 M, n = 4): 0.73±0.07 | Nav1.5 τ 1inact (human Nav1.5 [1]; 10^-9 M, n = 4): 0.45 ± 0.01 ms | Nav1.5 τ 2inact (human Nav1.5 [1]; 10^-9 M, n = 4): 1.77 ± 0.34 ms | EC50 (human Nav1.5 [1]; inhibition of peak current, −20 mV, Vh −120 mV, n = 5): 17 nM | Nav1.5 Ilate FC^Max (maximal fold change) (human Nav1.5 [1]; not significant vs control, −20 mV, Vh −120 mV, n = 5): 1.3 ± 0.2 | Nav1.5 Ipeak FC^Max (maximal fold change) (human Nav1.5 [1]; test pulse −20 mV, Vh −120 mV, extracellular, n = 5): 0.4 ± 0.1 | Nav1.7 yinf (human Nav1.7; 10^-5 M, n = 4): 0.07±0.01 | Nav1.7 τ inact (human Nav1.7; 10^-5 M, n = 4): 0.93 ± 0.09 ms | Nav1.7 yinf (human Nav1.7; 10^-6 M, n = 4): 0.07±0.01 | Nav1.7 τ inact (human Nav1.7; 10^-6 M, n = 4): 0.85 ± 0.06 ms | Nav1.7 yinf (human Nav1.7; 10^-9 M, n = 4): 0.07±0.01 | Nav1.7 τ inact (human Nav1.7; 10^-9 M, n = 4): 0.76 ± 0.05 ms | modulation of Nav1.7 currents (human Nav1.7; up to 30 μM): did not modulate | inhibition of Nav1.4 Gmax (human Nav1.4; Brevenalo 1 μM): ~ 70% | Gmax^Rel of Nav1.4 (human Nav1.4; Brevenalo 1 μM, n = 7): 0.3 ± 0.02 | depolarizing shift in V0.5 of Nav1.4 (human Nav1.4; Brevenalo 1 μM, n = 7): 4.9 ± 1.1 mV | Nav1.4 V0.5 (human Nav1.4; Ctro:Brevenali, n = 4, control −31.8 ± 0.5 mV): −26.4 ± 2.8 mV | right shift of Nav1.4 activation vs control intracellular (human Nav1.4; brevenal 1 μM in the intracellular solution): ~ 5 mV | ΔV0.5 of Nav1.5 activation (human Nav1.5 [2]; Brevenalo 10 μM, n = 7): 0.1 ± 1.4 mV | relative Gmax of Nav1.5 (human Nav1.5 [2]; brevenal 10 μM extracellular, n = 7): 0.3 ± 0.1

C=C(CO)C[C@@H]1C[C@H](O)[C@]2(C)OC3CC4OC5C[C@]6(C)O[C@]7(C)CCC8OC9C[C@]%10(C)OC%11C(C)=CC(=O)OC%11CC%10OC9C[C@@H](C)C8OC7CC6O[C@@]5(C)C/C=C\C4OC3CC2O1 (stereo partly drawn) [PbTx-3, Brevetoxin PbTx-3]
Nav1.5 A1Rel (human Nav1.5 [1]): 0.82±0.05 and 0.72±0.01 and 0.71±0.06 | Nav1.5 A2Rel (human Nav1.5 [1]): 0.18±0.05 and 0.28±0.01 and 0.29±0.06 | Nav1.5 Ilate FC^Max (maximal fold change) (human Nav1.5 [1]): 1.8 ± 0.1 | Nav1.5 Ipeak FC^Max (maximal fold change) (human Nav1.5 [1]): 0.2 ± 0.1 | Nav1.5 τ 1inact (human Nav1.5 [1]): 0.46 ± 0.03 ms and 0.48 ± 0.06 ms and 0.45 ± 0.02 ms | Nav1.5 τ 2inact (human Nav1.5 [1]): 2.42 ± 0.52 ms and 2.67 ± 0.78 ms and 1.48 ± 0.31 ms | EC50 (human Nav1.5 [1]): 2.2 nM | Nav1.7 Ilate FC^Max (maximal fold change) (human Nav1.7): 0.6 ± 0.1 | Nav1.7 Ipeak FC^Max (maximal fold change) (human Nav1.7): 0.4 ± 0.1 | Nav1.7 yinf (human Nav1.7): 0.04±0.01 | Nav1.7 τ inact (human Nav1.7): 0.60 ± 0.05 ms and 0.63 ± 0.04 ms and 0.66 ± 0.11 ms | IC50 (human Nav1.7; read-out: IC50, inhibition of Nav1.7 Ilate): 34 nM | EC50 (human Nav1.7; read-out: Nav1.7 Ipeak EC50): 0.16 nM | Gmax^Rel of Nav1.4 (human Nav1.4): 0.3 ± 0.05 and 0.4 ± 0.1 | hyperpolarizing shift in V0.5 of Nav1.4 (human Nav1.4): 9.2 ± 1.5 mV | inhibition of Nav1.4 Gmax (human Nav1.4): ~ 70% | inhibition of Nav1.4 Ipeak (human Nav1.4): completely inhibited | ΔV0.5 of Nav1.4 activation (human Nav1.4): 3.1 ± 2.6 mV | Gmax^Rel of Nav1.5 (human Nav1.5 [2]): 1.2 ± 0.1 | depolarizing shift in V0.5 of Nav1.5 (human Nav1.5 [2]): 8.7 ± 1.2 mV | depolarizing shift ΔV0.5 of Nav1.5 (human Nav1.5 [2]): 10.8 ± 2.0 mV | relative Gmax of Nav1.5 (human Nav1.5 [2]): 0.4 ± 0.04

— paper PMC10382042, “Brevetoxin versus Brevenal Modulation of Human Nav1 Channels” (Marine Drugs, 2023)
